Holding throughout (experiment): NCI tumour cell line growth inhibition, 48 h
For assay [1], the system named is SK-MEL-2 melanoma.
The test system of assay [2] is BT-549 breast.
Assay [3] deals with UO-31 renal.
The test system of assay [4] is RPMI-8226 leukemia.
For assay [5], the system named is UACC-62 melanoma.
Assay [6] relates to CAKI-1 renal.
Assay [7] has as its system SK-MEL-5 melanoma.
The subject of assay [8] is KM12 colon.
Assay [9] relates to HS 578T breast.
The subject of assay [10] is TK-10 renal.
In assay [11] the test system is MALME-3M melanoma.
The test system of assay [12] is 786-0 renal.
Assay [13] deals with MDA-MB-435.
The subject of assay [14] is SN12C renal.
The subject of assay [15] is ACHN renal.
Assay [16] relates to SF-268 CNS.
In assay [17] the test system is M14 melanoma.
Assay [18] concerns IGROV1 ovarian.
Assay [19] relates to NCI-H460 lung.
The test system of assay [20] is MDA-N.

The source of these data is PubChem BioAssay (NCI).

Each structure is given as a SMILES string.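 Briefly, cells in 96-well plates were exposed to five compound concentrations for 48 h, and endpoints were estimated by linear interpolation. TGI denotes the concentration required for complete inhibition of growth.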

Take `CO[C@]12S[C@@H]3CCCC[C@@]31C(C)(C)C(=O)N2c1ccccc1`: the TGI is 95.5 µM in [1]; greater than 100 µM in [2]; greater than 100 µM in assay [3]; 73 µM in assay [4]; greater than 100 µM in [5]; greater than 100 µM in assay [6]. Besides, the TGI in assay [7] was 43.3 µM; in assay [8], greater than 100 µM; in [9], greater than 100 µM; in assay [10] it was greater than 100 µM; in assay [11], greater than 100 µM; in [12], greater than 100 µM. The TGI was greater than 100 µM in assay [13]; 56.7 µM in assay [14]; greater than 100 µM in assay [15]; greater than 100 µM in assay [16]; greater than 100 µM in [17]; greater than 100 µM in assay [18]. Also, the TGI in assay [19] and in assay [20] was greater than 100 µM each time.

On to `CCOC(=O)C1C(c2ccc(OC)cc2)c2c([nH][nH]c2=O)CC1(C)O` (stereo not given), for which the TGI in [1], in [2], in assay [3], in assay [4], in assay [5] and in [6] was greater than 100 µM each time. Further, the TGI in assay [7], in [8], in assay [9], in assay [10], in assay [11] and in assay [12] was greater than 100 µM throughout. For the same compound, the TGI in [13], in assay [14], in assay [15], in assay [16], in assay [17] and in assay [18] was greater than 100 µM in each case. In addition, the TGI in [19] and in [20] was greater than 100 µM in each case.

Consider `O=[N+]([O-])c1cc(-[n+]2cc([O-])on2)ccc1Cl`, for which the TGI is 46.3 µM in assay [1]; 49 µM in assay [2]; 31 µM in assay [3]; 79.8 µM in [4]; 89.8 µM in assay [5]; 5.01 µM in assay [6]. The TGI in assay [7] came to 21.9 µM; in assay [8], 54.9 µM; in [9] it was 31.3 µM; in assay [10], 67.2 µM; in assay [11], 32.9 µM; in assay [12], 60.3 µM. The TGI is greater than 100 µM in assay [13]; 29.8 µM in assay [14]; 29.5 µM in [15]; 78.3 µM in assay [16]; 41.8 µM in assay [17]; 64.5 µM in [18]. Further, the TGI in assay [19] is greater than 100 µM; in [20] it was 39.9 µM.

On to `CC/C(Cl)=N\OC(=O)Nc1ccc(OC)c(C)c1`, for which the TGI in [1] was 49.9 µM; in assay [2] it was 34.9 µM; in [3], 35.5 µM; in assay [4], greater than 55.8 µM; in [5], 28.9 µM; in assay [6], 1.84 µM. Further, the TGI is 39.1 µM in [7]; greater than 60 µM in [8]; 59.2 µM in assay [9]; 41.7 µM in [10]; 26.6 µM in [11]; 36.8 µM in assay [12]. Further, the TGI in assay [13] was greater than 100 µM; in [14], 32.4 µM; in [15], 21.5 µM; in [16], greater than 77.1 µM; in [17], 44.1 µM; in assay [18], 39.1 µM. Besides, the TGI in [19] is greater than 100 µM; in assay [20], 41 µM.

As for `COC(=O)c1c(C)c2c(c(C)c1C(=O)OC)-c1c(C)ccc3ccc(C)c-2c13`, the TGI in assay [1], in [2], in assay [3], in assay [4], in assay [5] and in [6] was greater than 100 µM in each case. The TGI in assay [7] was 95.8 µM; in assay [8] it was greater than 100 µM; in assay [9], greater than 100 µM; in assay [10] it was greater than 100 µM; in [11] it was greater than 100 µM; in [12], greater than 100 µM. In addition, the TGI in assay [13], in [14], in assay [15], in assay [16], in assay [17] and in assay [18] was greater than 100 µM in each case. Also, the TGI in assay [19] is greater than 69.4 µM; in assay [20], greater than 100 µM.

Take `CC(=O)Oc1c2ccsc2c(OC(C)=O)c2ccsc12`: the TGI is 1.98 µM in assay [1]; 1.86 µM in assay [2]; 2.57 µM in assay [3]; greater than 28 µM in [4]; 3.3 µM in assay [5]; 3.66 µM in assay [6]. For the same compound, the TGI in assay [7] is 0.31 µM; in assay [8], 3.24 µM; in assay [9], 0.951 µM; in assay [10], 4.2 µM; in assay [11], 0.889 µM; in assay [12] it was 5.2 µM. Besides, the TGI in assay [13] was 0.377 µM; in assay [14] it was 2.03 µM; in [15], 2.28 µM; in assay [16], 5.81 µM; in [17], 0.94 µM; in [18] it was 3.5 µM. For the same compound, the TGI in assay [19] is 3.57 µM; in assay [20], 0.25 µM.

Consider `COc1c(C(C)(C)C)cc(CC2C(=O)C=CC2=O)cc1C(C)(C)C`, for which the TGI is 36.7 µM in assay [1]; 41.1 µM in [2]; 27.5 µM in assay [3]; 11.6 µM in [4]; 33.2 µM in assay [5]; 30.5 µM in assay [6]. Further, the TGI is 33.9 µM in [7]; 34 µM in [8]; 70.4 µM in assay [9]; 12.1 µM in assay [10]; 49.6 µM in assay [11]; greater than 22.3 µM in assay [12]. Further, the TGI in assay [13] was 37.4 µM; in assay [14], greater than 73 µM; in assay [15], 22.5 µM; in assay [16] it was 40 µM; in [17] it was 39.6 µM; in assay [18], 29.2 µM. For the same compound, the figures for the TGI in [19] and in assay [20] were 41.2 µM and 39.6 µM, respectively.

For `c1ccc(Cn2c(-c3ccc(-c4ccccc4)cc3)cc3ccccc32)cc1`, the TGI in assay [1], in assay [2], in assay [3], in assay [4], in assay [5] and in assay [6] was greater than 100 µM each time. The TGI in [7], in assay [8], in [9], in [10], in assay [11] and in [12] was greater than 100 µM throughout. In addition, the TGI in [13], in assay [14], in assay [15], in assay [16], in assay [17] and in assay [18] was greater than 100 µM each time. Further, the TGI in [19] and in assay [20] was greater than 100 µM in each case.

With `CN(C)CCCNC(=O)c1cc(NS(=O)(=O)c2ccc3c(c2)C(=O)c2ccccc2C3=O)cn1C`, the TGI is greater than 100 µM in assay [1]; 53.9 µM in assay [2]; greater than 100 µM in assay [3]; 53.2 µM in assay [4]; 41.4 µM in [5]; greater than 100 µM in [6]. Besides, the TGI was 37.4 µM in [7]; 41.1 µM in assay [8]; greater than 100 µM in assay [9]; 51.3 µM in assay [10]; 18.7 µM in [11]; 77.3 µM in [12]. The TGI in assay [13] was 59 µM; in assay [14] it was 90.7 µM; in assay [15], 49.5 µM; in assay [16], 72.5 µM; in [17], 62.8 µM; in assay [18], 75.1 µM. The results for the TGI in assay [19] and in assay [20] were 54.9 µM and 60 µM, respectively.

In the case of `COC1=C2CC(C)CC(OC)C(OC(=O)CN)[C@H](C)/C=C(\C)C(OC(N)=O)C(OC)/C=C\C=C(/C)C(=O)NC(=CC1=O)C2=O` (stereo not given in full), the TGI in assay [1] was 14.7 µM; in assay [2], 14.2 µM; in assay [3], 11.6 µM; in [4], greater than 100 µM; in [5], 1.78 µM; in assay [6], 17 µM. In addition, the TGI turned out to be 4.51 µM in assay [7]; 4.29 µM in assay [8]; 20.2 µM in assay [9]; 15.6 µM in assay [10]; 1.59 µM in assay [11]; 6.45 µM in assay [12]. Besides, the TGI in assay [13] worked out at 2.89 µM; in [14], 4.91 µM; in assay [15] it was 13.4 µM; in [16] it was 16.4 µM; in assay [17], 10.8 µM; in assay [18], 1.62 µM. Besides, the values for the TGI in [19] and in assay [20] were 20.9 µM and 3.34 µM, respectively.

On to `Cc1ccc(S(=O)(=O)N/N=C2\CCCCCCCCCCC2CN(C)C)cc1` (stereo not given), for which the TGI is 22.8 µM in assay [1]; 32.1 µM in assay [2]; 21 µM in [3]; greater than 100 µM in assay [4]; 32.3 µM in assay [5]; 50.4 µM in [6]. The TGI in [7] amounted to 24 µM; in assay [8], 31.8 µM; in [9], 35.6 µM; in [10], 27.6 µM; in assay [11], 30.9 µM; in [12], 29.9 µM. For the same compound, the TGI in assay [13] was 28 µM; in assay [14], 44.4 µM; in assay [15] it was 40.2 µM; in assay [16], 54.3 µM; in [17], 31.1 µM; in [18], 30.7 µM. Besides, the TGI in assay [19] stood at 25.3 µM; in assay [20], 32.8 µM.

In the case of `Cc1ccc(S(=O)(=O)N/N=C2\CCC3(O)CC2(C)CCC2C3CC2(C)C)cc1` (stereo not given), the TGI is 87.1 µM in assay [1]; greater than 100 µM in [2]; 80.3 µM in [3]; greater than 100 µM in [4]; greater than 100 µM in assay [5]; greater than 100 µM in [6]. The TGI in assay [7] was greater than 100 µM; in assay [8] it was greater than 100 µM; in assay [9] it was 95.6 µM; in [10], 75.8 µM; in [11], greater than 100 µM; in assay [12] it was greater than 100 µM. The TGI in assay [13], in [14], in [15], in [16], in [17] and in [18] was greater than 100 µM in each case. In addition, the TGI in [19] is 46.7 µM; in [20], greater than 100 µM.

Consider `CC(NC1=CC(=O)c2cccnc2C1=O)C(O)c1ccccc1` (stereo not given), for which the TGI in [1] amounted to 4.48 µM; in [2], 3.59 µM; in [3], 9.49 µM; in assay [4], 6.7 µM; in assay [5], 3.1 µM; in assay [6] it was 7.23 µM. The TGI in assay [7] came to 2.44 µM; in [8], 27.8 µM; in assay [9] it was 8.14 µM; in assay [10], 28.1 µM; in assay [11], 2.94 µM; in assay [12], 12.2 µM. Also, the TGI in [13] came out at 3.13 µM; in assay [14] it was 3.04 µM; in assay [15], 14.5 µM; in [16], 20.8 µM; in assay [17], 3.12 µM; in [18] it was 6.18 µM. Besides, the figures for the TGI in assay [19] and in assay [20] were 2.78 µM and 1.3 µM, respectively.

As to `CCc1c(CNC2=NCCN2)c(CC)c(CNC2=NCCN2)c(CC)c1CNC1=NCCN1`, the TGI in assay [1], in assay [2], in assay [3], in [4], in [5] and in assay [6] was greater than 100 µM throughout. In addition, the TGI in [7], in [8], in [9], in assay [10], in assay [11] and in assay [12] was greater than 100 µM each time. The TGI in [13], in [14], in [15], in [16], in [17] and in [18] was greater than 100 µM each time. The TGI in assay [19] and in assay [20] was greater than 100 µM each time.
